In patent publication US20080009418A1, “Selective Inhibitors” (Alchemia LTD., priority 2004, published 2008):

Assays:
Human δ-opioid (DOP) = target: T1, Human δ-opioid (DOP) (Homo sapiens, UniProt P41143); assay: Radioligand binding, human δ-opioid (DOP) membranes, FlashPlate, [3H]-Bremazocine; conditions: compound at 10 μM, [3H]-Bremazocine; for A1: inhibition of radioligand binding: human DOP membranes
T1 construct: purchased Perkin Elmer Biosignal
Outline: (§1)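 Cloned human receptor membranes were coated onto FlashPlate wells and incubated with radioligand and compound (added from a 0.5 mM DMSO daughter plate) for 1 hour at room temperature in the dark. Scintillation counting gave percent inhibition, with DMSO defining total and reference ligand defining non-specific binding.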

Human κ-Opioid (KOP) = target: T2, Human κ-Opioid (KOP) (Homo sapiens, UniProt P41145); assay: Radioligand binding, human κ-opioid (KOP) membranes, filtration, [3H]-Diprenorphine; conditions: compound at 10 μM, [3H]-Diprenorphine; for A2: inhibition of radioligand binding: human KOP membranes
T2 construct: purchased Perkin Elmer Biosignal
Outline: (§2)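 Percent inhibition of radioligand binding measured on recombinant human membranes: NK1 with [125I]-Substance P, KOP with [3H]-Diprenorphine. Incubation 1 h at room temperature, then harvest onto 0.3% PEI-soaked filters, cold Tris-HCl pH 7.4 washes and scintillation counting; non-specific binding from reference ligand wells.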

Human Melanocortin (MC3) = target: T3, Human Melanocortin (MC3) (Homo sapiens, UniProt P41968); assay: Radioligand binding, human melanocortin MC3 membranes, FlashPlate, [125I]-NDP-αMSH; conditions: compound at 10 μM, [125I]-NDP-αMSH; for A3: inhibition of radioligand binding: human MC3 membranes
T3 construct: purchased Perkin Elmer Biosignal
Outline: as §1

Human Melanocortin (MC4) = target: T4, Human Melanocortin (MC4) (Homo sapiens, UniProt P32245); assay: Radioligand binding, human melanocortin MC4 membranes, FlashPlate, [125I]-NDP-αMSH; conditions: compound at 10 μM, [125I]-NDP-αMSH; for A4: inhibition of radioligand binding: human MC4 membranes
T4 construct: purchased Perkin Elmer Biosignal
Outline: as §1

Human melanocortin (MC5) = target: T5, Human melanocortin (MC5) (Homo sapiens, UniProt P33032); assay: Radioligand binding, human melanocortin MC5 membranes, FlashPlate, [125I]-NDP-αMSH; conditions: compound at 10 μM, [125I]-NDP-αMSH; for A5: inhibition of radioligand binding: human MC5 membranes
T5 construct: purchased Perkin Elmer Biosignal
Outline: as §1

[1] = target: T6, Human melanin-concentrating hormone (MCH1) (Homo sapiens, UniProt Q99705); assay: Radioligand binding, human melanin-concentrating hormone MCH1 membranes, FlashPlate, [125I]-S36057; conditions: compound at 10 μM; for A6: inhibition of radioligand binding: [125I]-S36057, human MCH1 membranes
T6 construct: purchased Perkin Elmer Biosignal
Outline: as §1

Human μ-opioid (MOP) = target: T7, Human μ-opioid (MOP) (Homo sapiens, UniProt P35372); assay: Radioligand binding, human μ-opioid (MOP) membranes, FlashPlate, [3H]-Naloxone; conditions: compound at 10 μM, [3H]-Naloxone; for A7: inhibition of radioligand binding: human MOP membranes
T7 construct: purchased Perkin Elmer Biosignal
Outline: as §1

Human neurokinin (NK1) = target: T8, Human neurokinin (NK1) (Homo sapiens, UniProt P25103); assay: Radioligand binding, human neurokinin NK1 membranes, filtration, [125I]-Substance P; conditions: compound at 10 μM, [125I]-Substance P; for A8: inhibition of radioligand binding: human NK1 membranes
T8 construct: purchased Perkin Elmer Biosignal
Outline: as §2

[2] = target: T9, Human neuropeptide Y (NPY-Y1) (Homo sapiens, UniProt P25929); assay: Radioligand binding, human neuropeptide Y NPY-Y1 membranes, FlashPlate, [125I]-PYY; conditions: compound at 10 μM, [125I]-PYY; for A9: inhibition of radioligand binding: human NPY-Y1 membranes
T9 construct: purchased Perkin Elmer Biosignal
T9 sequence (P25929 1-384): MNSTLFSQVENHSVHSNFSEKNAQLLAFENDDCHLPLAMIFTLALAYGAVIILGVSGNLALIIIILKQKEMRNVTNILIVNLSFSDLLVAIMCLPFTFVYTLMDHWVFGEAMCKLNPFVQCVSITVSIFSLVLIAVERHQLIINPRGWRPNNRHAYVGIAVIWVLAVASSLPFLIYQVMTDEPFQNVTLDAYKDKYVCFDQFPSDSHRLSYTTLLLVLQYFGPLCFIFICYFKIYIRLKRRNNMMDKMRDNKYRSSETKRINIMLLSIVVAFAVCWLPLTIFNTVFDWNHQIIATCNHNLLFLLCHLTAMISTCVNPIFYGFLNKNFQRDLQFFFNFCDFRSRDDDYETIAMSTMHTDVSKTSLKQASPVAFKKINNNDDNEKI
Outline: as §1

Human opioid (ORL1) = target: T10, Human opioid (ORL1) (Homo sapiens, UniProt P41146); assay: Radioligand binding, human opioid ORL1 membranes, FlashPlate, [125I]-Nociceptin; conditions: compound at 10 μM, [125I]-Nociceptin; for A10: inhibition of radioligand binding: human ORL1 membranes
T10 construct: purchased Perkin Elmer Biosignal
Outline: as §1

Mouse urotensin (mUR2) = target: T11, Mouse urotensin (mUR2) (Mus musculus, UniProt Q8VIH9); assay: Radioligand binding, mouse urotensin mUR2 membranes, FlashPlate, [125I]-Urotensin II; conditions: compound at 10 μM, [125I]-Urotensin II; for A11: inhibition of radioligand binding: mouse mUR2 membranes
T11 construct: purchased Perkin Elmer Biosignal
T11 sequence (Q8VIH9 1-385): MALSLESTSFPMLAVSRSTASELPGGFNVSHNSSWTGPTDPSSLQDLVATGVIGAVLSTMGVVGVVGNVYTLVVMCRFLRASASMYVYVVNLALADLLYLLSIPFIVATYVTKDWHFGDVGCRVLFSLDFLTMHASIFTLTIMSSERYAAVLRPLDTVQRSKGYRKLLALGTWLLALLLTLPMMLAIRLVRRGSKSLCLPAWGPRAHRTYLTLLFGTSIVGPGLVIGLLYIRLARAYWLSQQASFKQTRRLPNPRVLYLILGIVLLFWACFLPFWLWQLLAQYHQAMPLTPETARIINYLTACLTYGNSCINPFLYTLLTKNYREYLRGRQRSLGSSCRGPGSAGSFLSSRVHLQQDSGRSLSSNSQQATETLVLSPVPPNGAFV
Outline: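 Cloned mouse urotensin (mUR2) receptor membranes from Perkin Elmer Biosignal were immobilized in FlashPlate microplates using a proprietary coating. Each well got 19.5 μl buffer, then 0.5 μl of DMSO, reference ligand, or compound. Adding 5 μl of [125I]-Urotensin II, diluted to 5× final concentration in binding buffer, started binding. Plates were sealed with TopSeal-A and incubated 1 hour at room temperature in the dark. Wells were counted for 30 seconds each on a TopCount after a 60-second delay, and percentage inhibition was calculated.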

T6 sequence (Q99705 whole entry): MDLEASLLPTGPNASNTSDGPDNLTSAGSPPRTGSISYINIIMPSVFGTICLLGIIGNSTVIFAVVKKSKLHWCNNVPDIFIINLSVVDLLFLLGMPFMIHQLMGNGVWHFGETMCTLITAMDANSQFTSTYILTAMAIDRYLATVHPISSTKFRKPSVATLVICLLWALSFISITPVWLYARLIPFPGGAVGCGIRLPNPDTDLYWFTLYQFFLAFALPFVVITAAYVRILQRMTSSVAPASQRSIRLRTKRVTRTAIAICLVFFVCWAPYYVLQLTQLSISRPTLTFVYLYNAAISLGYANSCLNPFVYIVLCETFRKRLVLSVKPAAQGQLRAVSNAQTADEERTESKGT
T2 sequence (P41145 whole entry): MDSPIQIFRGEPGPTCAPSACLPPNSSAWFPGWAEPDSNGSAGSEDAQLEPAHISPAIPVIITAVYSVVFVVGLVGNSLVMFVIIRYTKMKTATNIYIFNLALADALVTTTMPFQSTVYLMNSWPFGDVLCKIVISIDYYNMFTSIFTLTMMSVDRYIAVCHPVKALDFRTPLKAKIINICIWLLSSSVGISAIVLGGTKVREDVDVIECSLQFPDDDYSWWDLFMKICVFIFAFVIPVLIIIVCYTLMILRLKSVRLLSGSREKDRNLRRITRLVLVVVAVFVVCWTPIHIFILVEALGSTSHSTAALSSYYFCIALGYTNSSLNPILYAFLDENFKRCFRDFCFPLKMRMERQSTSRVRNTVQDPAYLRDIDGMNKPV
T7 sequence (P35372 whole entry): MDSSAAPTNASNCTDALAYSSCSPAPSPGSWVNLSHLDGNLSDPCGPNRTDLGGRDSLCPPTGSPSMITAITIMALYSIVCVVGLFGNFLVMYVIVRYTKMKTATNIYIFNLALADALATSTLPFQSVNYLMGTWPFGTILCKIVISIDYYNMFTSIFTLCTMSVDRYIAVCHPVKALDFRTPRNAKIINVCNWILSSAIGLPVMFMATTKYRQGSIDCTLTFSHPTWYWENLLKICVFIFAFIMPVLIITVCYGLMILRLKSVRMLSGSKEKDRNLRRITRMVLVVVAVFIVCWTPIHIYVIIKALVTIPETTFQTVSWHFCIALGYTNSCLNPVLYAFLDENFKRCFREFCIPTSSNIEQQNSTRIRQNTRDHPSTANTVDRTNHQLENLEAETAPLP
T5 sequence (P33032 whole entry): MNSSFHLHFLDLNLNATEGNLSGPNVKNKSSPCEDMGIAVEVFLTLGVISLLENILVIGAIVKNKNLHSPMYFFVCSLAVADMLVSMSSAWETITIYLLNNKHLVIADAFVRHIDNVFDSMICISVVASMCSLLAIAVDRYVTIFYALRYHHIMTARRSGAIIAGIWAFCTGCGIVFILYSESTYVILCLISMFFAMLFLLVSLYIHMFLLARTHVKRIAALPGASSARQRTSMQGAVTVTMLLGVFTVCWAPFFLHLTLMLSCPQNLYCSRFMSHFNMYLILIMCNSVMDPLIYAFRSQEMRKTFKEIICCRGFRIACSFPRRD
T3 sequence (P41968 whole entry): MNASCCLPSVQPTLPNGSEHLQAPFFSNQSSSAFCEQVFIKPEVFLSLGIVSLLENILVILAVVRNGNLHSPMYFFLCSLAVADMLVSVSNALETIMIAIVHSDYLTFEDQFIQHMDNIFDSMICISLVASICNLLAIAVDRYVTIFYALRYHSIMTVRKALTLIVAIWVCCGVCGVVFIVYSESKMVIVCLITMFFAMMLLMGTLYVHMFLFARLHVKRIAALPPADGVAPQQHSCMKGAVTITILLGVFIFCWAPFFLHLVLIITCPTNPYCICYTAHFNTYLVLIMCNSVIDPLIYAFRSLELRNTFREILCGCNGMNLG
T8 sequence (P25103 whole entry): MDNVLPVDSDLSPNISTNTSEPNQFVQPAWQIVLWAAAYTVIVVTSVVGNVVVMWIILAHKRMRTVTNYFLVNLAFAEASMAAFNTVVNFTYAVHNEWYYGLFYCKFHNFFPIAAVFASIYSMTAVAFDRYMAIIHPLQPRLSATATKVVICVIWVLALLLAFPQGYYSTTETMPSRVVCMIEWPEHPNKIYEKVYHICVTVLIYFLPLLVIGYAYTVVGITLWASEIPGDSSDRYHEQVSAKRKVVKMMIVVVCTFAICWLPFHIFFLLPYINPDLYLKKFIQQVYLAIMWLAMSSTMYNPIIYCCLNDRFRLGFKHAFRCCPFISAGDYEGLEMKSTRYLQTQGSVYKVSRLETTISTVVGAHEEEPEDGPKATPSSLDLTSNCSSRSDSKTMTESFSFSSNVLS
T10 sequence (P41146 whole entry): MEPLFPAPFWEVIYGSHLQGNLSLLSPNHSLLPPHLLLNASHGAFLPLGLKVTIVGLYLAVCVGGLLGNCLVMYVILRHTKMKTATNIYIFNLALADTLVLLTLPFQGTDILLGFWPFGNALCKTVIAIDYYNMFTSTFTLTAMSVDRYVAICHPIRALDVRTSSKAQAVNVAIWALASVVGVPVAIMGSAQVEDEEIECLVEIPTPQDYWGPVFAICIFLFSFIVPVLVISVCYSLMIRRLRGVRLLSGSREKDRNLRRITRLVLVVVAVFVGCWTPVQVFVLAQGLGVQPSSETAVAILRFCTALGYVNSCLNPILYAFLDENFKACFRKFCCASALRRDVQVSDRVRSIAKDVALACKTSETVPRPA
T1 sequence (P41143 whole entry): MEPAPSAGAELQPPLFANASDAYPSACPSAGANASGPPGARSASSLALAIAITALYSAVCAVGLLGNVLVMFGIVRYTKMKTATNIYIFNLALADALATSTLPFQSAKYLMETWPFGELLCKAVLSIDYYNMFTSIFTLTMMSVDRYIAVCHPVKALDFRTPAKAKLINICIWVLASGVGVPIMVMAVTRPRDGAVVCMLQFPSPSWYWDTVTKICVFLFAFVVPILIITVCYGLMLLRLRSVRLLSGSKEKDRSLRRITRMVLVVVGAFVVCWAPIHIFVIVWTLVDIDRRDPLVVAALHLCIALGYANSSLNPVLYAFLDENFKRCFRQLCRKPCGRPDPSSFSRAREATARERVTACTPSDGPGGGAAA
T4 sequence (P32245 whole entry): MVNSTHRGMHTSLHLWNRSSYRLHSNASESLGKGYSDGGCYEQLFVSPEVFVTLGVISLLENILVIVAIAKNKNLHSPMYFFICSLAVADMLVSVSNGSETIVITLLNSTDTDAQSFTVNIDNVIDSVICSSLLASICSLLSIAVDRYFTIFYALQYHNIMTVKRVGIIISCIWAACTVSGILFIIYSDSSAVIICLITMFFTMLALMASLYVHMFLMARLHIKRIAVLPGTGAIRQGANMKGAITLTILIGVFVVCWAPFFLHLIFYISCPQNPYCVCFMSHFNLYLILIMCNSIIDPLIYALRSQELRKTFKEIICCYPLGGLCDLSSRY

Row | SMILES | A1: inhibition of radioligand binding (Human δ-opioid (DOP)) | A2: inhibition of radioligand binding (Human κ-Opioid (KOP)) | A3: inhibition of radioligand binding (Human Melanocortin (MC3); 10 µM) | A4: inhibition of radioligand binding (Human Melanocortin (MC4); 10 µM) | A5: inhibition of radioligand binding (Human melanocortin (MC5)) | A6: inhibition of radioligand binding [1] | A7: inhibition of radioligand binding (Human μ-opioid (MOP)) | A8: inhibition of radioligand binding (Human neurokinin (NK1)) | A9: inhibition of radioligand binding [2] | A10: inhibition of radioligand binding (Human opioid (ORL1); 10 µM) | A11: inhibition of radioligand binding (Mouse urotensin (mUR2)) | further results
1 | NCCCC(=O)NC1C(OCc2ccc3ccccc3c2)OC(COCc2ccc(Cl)cc2)C(O)C1OCc1ccccc1 (single isomer, unassigned) [compound 470] | − (“−” indicates less than 50% inhibition at 10 μM) | − (“−” indicates less than 50% inhibition at 10 μM) | − (“−” indicates less than 50% inhibition at 10 μM) | − (“−” indicates less than 50% inhibition at 10 μM) | + (“+” indicates greater than 50% inhibition at 10 μM) | − (“−” indicates less than 50% inhibition at 10 μM) | − (“−” indicates less than 50% inhibition at 10 μM) | + (“+” indicates greater than 50% inhibition at 10 μM) | − (“−” indicates less than 50% inhibition at 10 μM) | + (“+” indicates greater than 50% inhibition at 10 μM) | − (“−” indicates less than 50% inhibition at 10 μM) | 
2 | N=C(N)NCC(=O)NC1C(OCc2ccc(Cl)cc2)OC(COCc2ccccc2)C(O)C1OCc1ccc(-c2ccccc2)cc1 (stereo not shown) [compound 424] | − (“−” indicates less than 50% inhibition at 10 μM) | − (“−” indicates less than 50% inhibition at 10 μM) |  |  | + (“+” indicates greater than 50% inhibition at 10 μM) | − (“−” indicates less than 50% inhibition at 10 μM) | − (“−” indicates less than 50% inhibition at 10 μM) | + (“+” indicates greater than 50% inhibition at 10 μM) | − (“−” indicates less than 50% inhibition at 10 μM) |  | − (“−” indicates less than 50% inhibition at 10 μM) | A3: inhibition of radioligand binding (Human Melanocortin (MC3)): + (“+” indicates greater than 50% inhibition at 10 μM); A4: inhibition of radioligand binding (Human Melanocortin (MC4)): + (“+” indicates greater than 50% inhibition at 10 μM); A10: inhibition of radioligand binding (Human opioid (ORL1)): − (“−” indicates less than 50% inhibition at 10 μM)
3 | CO[C@H]1[C@H](O)[C@@H](COCc2ccc(Cl)cc2)OC(OCc2ccc(Cl)cc2)[C@@H]1NC(=O)CCCN (stereo partly shown) [compound 107] |  |  |  |  |  |  |  |  |  |  |  | A1 radioligand binding, percentage inhibition (Human δ-opioid (DOP)): − (“−” indicates less than 50% inhibition at 10 μM); A2 radioligand binding, percentage inhibition (Human κ-Opioid (KOP)): − (“−” indicates less than 50% inhibition at 10 μM); A3 radioligand binding, percentage inhibition (Human Melanocortin (MC3)): − (“−” indicates less than 50% inhibition at 10 μM); A4 radioligand binding, percentage inhibition (Human Melanocortin (MC4)): + (“+” indicates greater than 50% inhibition at 10 μM); A5 radioligand binding, percentage inhibition (Human melanocortin (MC5)): + (“+” indicates greater than 50% inhibition at 10 μM); A6 radioligand binding, percentage inhibition ([1]; [125I]-S36057): − (“−” indicates less than 50% inhibition at 10 μM); A7 radioligand binding, percentage inhibition (Human μ-opioid (MOP)): − (“−” indicates less than 50% inhibition at 10 μM); A8 radioligand binding, percentage inhibition (Human neurokinin (NK1)): + (“+” indicates greater than 50% inhibition at 10 μM); A9 radioligand binding, percentage inhibition [2]: − (“−” indicates less than 50% inhibition at 10 μM); A10 radioligand binding, percentage inhibition (Human opioid (ORL1)): − (“−” indicates less than 50% inhibition at 10 μM); A11 radioligand binding, percentage inhibition (Mouse urotensin (mUR2)): − (“−” indicates less than 50% inhibition at 10 μM)
4 | NCCCC(=O)NC1C(OCc2ccc3ccccc3c2)OC(COCc2ccc3ccccc3c2)C(O)C1OCc1ccccc1 (single isomer, unassigned) [compound 466] | − (“−” indicates less than 50% inhibition at 10 μM) | − (“−” indicates less than 50% inhibition at 10 μM) | − (“−” indicates less than 50% inhibition at 10 μM) | + (“+” indicates greater than 50% inhibition at 10 μM) | + (“+” indicates greater than 50% inhibition at 10 μM) |  | − (“−” indicates less than 50% inhibition at 10 μM) | + (“+” indicates greater than 50% inhibition at 10 μM) | − (“−” indicates less than 50% inhibition at 10 μM) | + (“+” indicates greater than 50% inhibition at 10 μM) | − (“−” indicates less than 50% inhibition at 10 μM) | A6: inhibition of radioligand binding ([1]; 10 µM): + (“+” indicates greater than 50% inhibition at 10 μM)
5 | COCC1OC(OCc2ccc3ccccc3c2)C(NC(=O)CCN)C(OCc2ccc3ccccc3c2)C1O (stereo not shown) [compound 546] |  |  |  |  |  |  |  |  |  |  |  | A1: inhibition of radioligand binding, human δ-opioid (DOP) (Human δ-opioid (DOP)): − (“−” indicates less than 50% inhibition at 10 μM); A2: inhibition of radioligand binding, human κ-opioid (KOP) (Human κ-Opioid (KOP)): − (“−” indicates less than 50% inhibition at 10 μM); A3: inhibition of radioligand binding, human melanocortin (MC3) (Human Melanocortin (MC3)): − (“−” indicates less than 50% inhibition at 10 μM); A4: inhibition of radioligand binding, human melanocortin (MC4) (Human Melanocortin (MC4)): − (“−” indicates less than 50% inhibition at 10 μM); A5: inhibition of radioligand binding, human melanocortin (MC5) (Human melanocortin (MC5); 10 µM): + (“+” indicates greater than 50% inhibition at 10 μM); A6: inhibition of radioligand binding, human melanin-concentrating hormone (MCH1) ([1]; [125I]-S36057): − (“−” indicates less than 50% inhibition at 10 μM); A7: inhibition of radioligand binding, human μ-opioid (MOP) (Human μ-opioid (MOP)): − (“−” indicates less than 50% inhibition at 10 μM); A8: inhibition of radioligand binding, human neurokinin (NK1) (Human neurokinin (NK1); 10 µM): − (“−” indicates less than 50% inhibition at 10 μM); A9: inhibition of radioligand binding, human neuropeptide Y (NPY-Y1) [2]: − (“−” indicates less than 50% inhibition at 10 μM); A10: inhibition of radioligand binding, human opioid (ORL1) (Human opioid (ORL1)): − (“−” indicates less than 50% inhibition at 10 μM); A11: inhibition of radioligand binding, mouse urotensin (mUR2) (Mouse urotensin (mUR2)): − (“−” indicates less than 50% inhibition at 10 μM)
